# Data reported in patent US8232407B2, “Nitrogenous heterocyclic compounds with insecticidal activity, and the preparation and use thereof” (East China University of Science and Technology, priority 2008, dated 2012).
# Where two headings read alike, the source gives them in different places.
# Assays:
# Type in all cases: in vivo
# Nilaparvata lugens = test: Insecticidal activities to plant hopper, spraying method; conditions: for Nilaparvata lugens Mortality (%) 500 ppm: in vivo; for mortality at 500 ppm: Nilaparvata lugens, read-out: Nilaparvata lugens Mortality (%) 500 ppm
# Procedure, shortened: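 Nilaparvata lugens, 10 insects per tumbler, sprayed with 2 ml compound in acetone at 0.79-500 ppm, three replicates, aqueous acetone control. Dead insects counted after 24 h; mortality corrected against control survival.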
# [1] = system: Pseudaletia separate Walker; test: Insecticidal activities to armyworm, leaf dipping and feeding
# Procedure, shortened: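 Maize leaves dipped 3 s in acetone-formulated compound at 500 down to 1.57 ppm, dried and fed to armyworms, 10 insects per treatment in triplicate, aqueous acetone as control. Mortality was counted after 24 hours and corrected against control survival.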
# Aphis craccivoral = test: Insecticidal activities to aphids, immersion method; conditions: for Aphis craccivoral Mortality (%) 500 ppm: in vivo; for mortality at 500 ppm: Aphis, read-out: Aphis craccivoral Mortality (%) 500 ppm
# Procedure, shortened: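 Wingless adult aphids feeding on bean sprouts were dipped 5 s in 500 ppm compound (DMF stock diluted in 0.2 mL/L aqueous Triton X-100), blotted and held at 23° C. Dead counted at 24 h, three replicates; mortality corrected against Triton-only controls.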
# Plutella xylostella = test: Insecticidal activities to diamondback moth, feeding dipped leaves; conditions: for Plutella xylostella Mortality (%) 500 ppm: in vivo; for mortality at 500 ppm: Plutella xylostella, read-out: Plutella xylostella Mortality (%) 500 ppm
# Procedure, shortened: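 Leaf-dip feeding assay: fresh cabbage leaves dipped 3 s in test solution, air-dried and fed to Plutella xylostella, 10 insects per treatment, three replicates, water control. Deaths counted after 24 h; mortality corrected against survival in the control group.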
# [2] = 500 ppm, leaf dipping and feeding, counted after 24 hours
SMILES,Nilaparvata lugens Mortality (%) 500 ppm (Nilaparvata lugens) [%],Pseudaletia separate Walker Mortality (%) 500 ppm ([1]; in vivo) [%],Aphis craccivoral Mortality (%) 500 ppm (Aphis craccivoral) [%],Plutella xylostella Mortality (%) 500 ppm (Plutella xylostella) [%],"mortality at 500 ppm (Nilaparvata lugens; 500 ppm, spraying method, counted after 24 hours) [%]","Pseudaletia separate Walker Mortality (%) 500 ppm [1, 2] [%]","mortality at 500 ppm (Aphis craccivoral; 500 ppm, immersion method) [%]","mortality at 500 ppm (Plutella xylostella; 500 ppm, feeding dipped leaves, counted after 24 hours) [%]",mortality at 500 ppm (Nilaparvata lugens; 24 h) [%],mortality at 500 ppm (Aphis craccivoral) [%],mortality at 500 ppm (Plutella xylostella; 24 h) [%]
O=[N+]([O-])C(=Cc1cc(Br)co1)C1=NCCCN1Cc1ccc(Cl)nc1 [Compound 52],100,100,100,100,–,–,–,–,–,–,–
O=[N+]([O-])C(=Cc1cc(Cl)c(Cl)o1)C1=NCCCN1Cc1ccc(Cl)nc1 [Compound 53],100,100,100,100,–,–,–,–,–,–,–
O=[N+]([O-])C(=Cc1oc(Cl)cc1Cl)C1=NCCCN1Cc1ccc(Cl)nc1 [Compound 54],100,100,100,100,–,–,–,–,–,–,–
O=[N+]([O-])C(=Cc1cc(Br)c(Br)o1)C1=NCCCN1Cc1ccc(Cl)nc1 [Compound 55],100,100,98,100,–,–,–,–,–,–,–
O=[N+]([O-])C(=Cc1oc(Br)cc1Br)C1=NCCCN1Cc1ccc(Cl)nc1 [Compound 56],100,100,100,100,–,–,–,–,–,–,–
Cc1ccc(C=C(C2=NCCCN2Cc2ccc(Cl)nc2)[N+](=O)[O-])o1 [Compound 57],78,100,100,100,–,–,–,–,–,–,–
CCc1ccc(C=C(C2=NCCCN2Cc2ccc(Cl)nc2)[N+](=O)[O-])o1 [Compound 59],84,86,57,100,–,–,–,–,–,–,–
O=[N+]([O-])C(=Cc1ccc(CO)o1)C1=NCCCN1Cc1ccc(Cl)nc1 [Compound 60],56,84,47,100,–,–,–,–,–,–,–
O=[N+]([O-])C(=Cc1cccs1)C1=NCCCN1Cc1ccc(Cl)nc1 [Compound 61],100,100,100,100,–,–,–,–,–,–,–
O=[N+]([O-])C(=Cc1ccsc1)C1=NCCCN1Cc1ccc(Cl)nc1 [Compound 62],100,100,90,100,–,–,–,–,–,–,–
O=[N+]([O-])C(=Cc1ccc([N+](=O)[O-])s1)C1=NCCCN1Cc1ccc(Cl)nc1 [Compound 63],100,100,98,100,–,–,–,–,–,–,–
O=[N+]([O-])C(=Cc1ccc(Cl)s1)C1=NCCCN1Cc1ccc(Cl)nc1 [Compound 64],100,100,100,100,–,–,–,–,–,–,–
O=[N+]([O-])C(=Cc1ccc(Br)s1)C1=NCCCN1Cc1ccc(Cl)nc1 [Compound 65],100,92,73,100,–,–,–,–,–,–,–
O=[N+]([O-])C(=Cc1cc(Cl)cs1)C1=NCCCN1Cc1ccc(Cl)nc1 [Compound 66],87,87,56,100,–,–,–,–,–,–,–
O=[N+]([O-])C(=Cc1cc(Br)cs1)C1=NCCCN1Cc1ccc(Cl)nc1 [Compound 67],83,90,65,100,–,–,–,–,–,–,–
"O=[N+]([O-])/C(=C/c1ccco1)C1=NCCN1Cc1cnc(Cl)s1 [Compound 68, 1-((2-chlorothiozol-5-yl)methyl)-2-(2-(furan-2-yl)-1-nitrovinyl)-4,5-dihydro-1H-imidazole]",–,–,–,–,100,100,100,100,–,–,–
O=[N+]([O-])C(=Cc1ccoc1)C1=NCCN1Cc1cnc(Cl)s1 [Compound 69],100,100,100,100,–,–,–,–,–,–,–
O=[N+]([O-])/C(=C/c1ccc([N+](=O)[O-])o1)C1=NCCN1Cc1cnc(Cl)s1 [Compound 70],–,–,–,–,–,98,–,–,100,100,100
O=[N+]([O-])C(=Cc1ccc(Cl)o1)C1=NCCN1Cc1cnc(Cl)s1 [Compound 71],100,100,100,100,–,–,–,–,–,–,–
O=[N+]([O-])C(=Cc1ccc(Br)o1)C1=NCCN1Cc1cnc(Cl)s1 [Compound 72],100,100,100,100,–,–,–,–,–,–,–
O=[N+]([O-])C(=Cc1cc(Cl)co1)C1=NCCN1Cc1cnc(Cl)s1 [Compound 73],100,100,100,100,–,–,–,–,–,–,–
O=[N+]([O-])C(=Cc1cc(Br)co1)C1=NCCN1Cc1cnc(Cl)s1 [Compound 74],100,100,100,100,–,–,–,–,–,–,–
O=[N+]([O-])C(=Cc1cc(Cl)c(Cl)o1)C1=NCCN1Cc1cnc(Cl)s1 [Compound 75],100,100,100,100,–,–,–,–,–,–,–
O=[N+]([O-])C(=Cc1oc(Cl)cc1Cl)C1=NCCN1Cc1cnc(Cl)s1 [Compound 76],100,100,100,100,–,–,–,–,–,–,–
O=[N+]([O-])C(=Cc1cc(Br)c(Br)o1)C1=NCCN1Cc1cnc(Cl)s1 [Compound 77],100,100,100,100,–,–,–,–,–,–,–
O=[N+]([O-])C(=Cc1oc(Br)cc1Br)C1=NCCN1Cc1cnc(Cl)s1 [Compound 78],100,100,100,100,–,–,–,–,–,–,–
Cc1ccc(C=C(C2=NCCN2Cc2cnc(Cl)s2)[N+](=O)[O-])o1 [Compound 79],100,100,100,100,–,–,–,–,–,–,–
CCc1ccc(C=C(C2=NCCN2Cc2cnc(Cl)s2)[N+](=O)[O-])o1 [Compound 81],100,100,100,100,–,–,–,–,–,–,–
